In patent US10422007B2, “Markers associated with Wnt inhibitors” (Novartis AG, priority 2013, dated 2019):

How the values were obtained:
Wnt signaling = assay: Wnt co-culture reporter gene assay (TM3 Wnt-Luc cells with L-cell Wnt3A cells); type: cell-based, mouse
Experimental: Reporter gene assay: Mouse Leydig cell TM3 cells (obtained from American Type Culture Collection, ATCC, Manassas, Va.) are cultured in 1:1 mixture of Ham's F12 medium and Dulbecco's modified Eagle's medium (Gibco/Invitrogen, Carlsbad, Calif.) supplemented with 2.5% FBS (Gibco/Invitrogen, Carlsbad, Calif.) and 5% horse serum (Gibco/Invitrogen, Carlsbad, Calif.), 50 unit/mL penicillin and 50 μg/mL of streptomycin (Gibco/Invitrogen, Carlsbad, Calif.) at 37° C. with 5% CO2 in air atmosphere. TM3 cells in a 10 cm dish are co-transfected with 8 μg of STF-reporter plasmid containing a luciferase gene driven by Wnt-responsive elements and 2 μg of pcDNA3.1-Neo (Gibco/Invitrogen, Carlsbad, Calif.) with 30 μL of FuGENE6 (Roche Diagnostics, Indianapolis, Ind.) following the manufacturer's protocol. Stable cell lines (TM3 Wnt-Luc) were selected with 400 μg/mL of G418 (Gibco/Invitrogen, Carlsbad, Calif.). […]

Wnt3A secretion = assay: HA-Wnt3A secretion in transfected 293A cells; type: cell-based; conditions: 293A cells transfected with HA-Wnt3A, various doses; lysate HA-Wnt3A spared
From the text: (§1) The secreted Wnts subsequently function on Wnt receiving cells that leads to phosphorylation of the Wnt […] LRP6. […] PORCN was reported to affect pan-Wnt post-translational palmitoylation^17-18.

LRP6 phosphorylation = assay: Wnt dependent phosphorylation of LRP6 in autocrine L-Wnt3A cells; type: cell-based, mouse
From the text: as §1

[1] = tested on: Wnt1, 2, 3, 3A, 6, 7A, and 9A; assay: Wnt dependent STF reporter assays with a set of canonical Wnts; type: cell-based
From the text: as §1

cells = assay: Cytotoxicity in cells; type: cell-based; conditions: up to 20 μM
From the text: as §1

HNSCC cell lines = assay: Cancer cell line profiling with AXIN2 mRNA expression as readout (TaqMan); type: cell-based, human
Experimental: (§2) To identify human cancer cell lines that respond to porcupine inhibition, we profiled over 300 cell lines using the mRNA expression level of AXIN2 as readout. All cell lines were cultured in a humidified incubator at 37° C. with 5% CO2. HN30 cells (Wayne State University) and UMSCC cells (University of Michigan) are derived from human head neck squamous cell carcinoma (HNSCC) patient tumor samples. Total RNA or DNA was isolated using the Qiagen RNeasy and DNeasy blood and tissue kit, according to the manufacturer's instruction, respectively. Briefly, cells were disrupted by adding Buffer RLT and homogenized using QlAshredder spin columns. After one volume of 70% ethanol was added to the homogenized lysate and thoroughly mixed, the samples were transferred to RNeasy spin column. The flow-through was discarded after centrifuge. […]
(§3) For this a two-Step TaqMan RT-PCR analysis was performed on a PTC-200 peltier thermal cycler (MJ Research) and an ABI PRISM 7900HT Sequence Detection system (Applied Biosystems). […] The PCR cycle is as following: 95° C. for 10 min and 40 cycles of tandem incubation at 95° C. for 15 sec and 60° C. for 1 min. mRNA expression levels for the target genes were normalized to GAPDH mRNA levels and data were analyzed using SDS 2.0 software (Applied Biosystems) to calculate relative RNA quantities. […]

HN30 cells [2] = assay: Wnt-dependent AXIN2 message production in HN30 (TaqMan); type: cell-based; conditions: Homo sapiens; HN30, 48 hours
Experimental: as §2, §3

HN30 cells [3] = assay: HN30 colony formation assay; type: cell-based, human; conditions: in vitro, crystal violet one week later
Experimental: In order to correlate the pathway inhibition with cellular function, the human HNSCC cell line HN30 was used for further in vitro and in vivo characterization. For colony formation assay, 2×10^3 cells per well were plated into 6-well cell culture plates with or without compound treatment. Cells were stained with crystal violet one week later.

HN30 tumors [4] = assay: Mouse subcutaneous xenograft model of HNSCC HN30, anti-tumor activity; type: in vivo
Experimental: (§4) Nude mice bearing HN30 tumors were randomized according to tumor volume. […] Body weight was monitored daily and tumor sizes were assessed three times a week once tumors were palpable. Tumor sizes were determined by using caliper measurements. Tumor volumes were calculated with a formula (Length×Width×Height)/2. […] Blood sample (50 μL) was collected by serial retroorbital sampling at 1, 3, 7, 16 and 24 hours post-dose. The blood samples were centrifuged and plasma separated and frozen until analysis by LC/MS/MS.
Changes in tumor weight for each treated (T) and control (C) groups were measured and used to calculate growth delay as expressed by the T/C ratio. […] A similar result was obtained when dosed twice a day in this model with −44% T/C at a dose of 0.5 mg/kg twice a day.

HN30 tumors [5] = assay: Pharmacodynamic markers in HN30 mouse xenograft tumors; type: in vivo
Experimental: AXIN2 mRNA and pLRP6 levels (determined as in Example 3) were utilized as pharmacodynamic markers to link the observed anti-tumor activity in the HN30 mouse xenograft model. […] A time delay was observed between the peak drug concentration (at 1 hour) and the maximum AXIN2 mRNA inhibition (at 10 hours). […] This pharmacokinetic (PK), PD, and efficacy relationship explains that the sustained pathway inhibition is not required for inducing tumor regression in this HN30 xenograft model, which may provide a key differentiation factor between tumors and normal tissues to achieve a therapeutic window.
For this a two-Step TaqMan RT-PCR analysis was performed on a PTC-200 peltier thermal cycler (MJ Research) and an ABI PRISM 7900HT Sequence Detection system (Applied Biosystems). Firstly, cDNA was synthesized using a High-Capacity cDNA Archive kit (Applied Biosystems) according to the manufacturer's instructions. Briefly, the RT reaction was prepared by mixing non-enzymatic, enzymatic components of the High-Capacity cDNA Archive kit and isolated RNA samples, followed with tandem incubation at 25° C. for 10 min and 37° C. for 120 min using a thermal cycler. Secondly, TaqMan analyses were performed using TaqMan Universal Master mix (Applied Biosystems) and AXIN2 and GAPDH probes (Applied Biosystems) according to the manufacturer's instructions. Briefly, the PCR reaction was prepared by mixing Universal Master mix, TaqMan probes and synthesized cDNA samples. The PCR cycle is as following: 95° C. for 10 min and 40 cycles of tandem incubation at 95° C. for 15 sec and 60° C. for 1 min. mRNA expression levels for the target genes were normalized to GAPDH mRNA levels and data were analyzed using SDS 2.0 software (Applied Biosystems) to calculate relative RNA quantities. Curve fitting was performed using Prism.
For GeneCard analysis, 96-well TaqMan array gene card was used according to the manufacturer's instruction. The gene card assays were run on ABI 7900HT Real-Time PCR System (Applied Biosystems) and analyzed with the ΔΔCt method.

[6] = Plasma concentrations in tumor bearing nude mice; type: in vivo, mouse; conditions: single dose 3 mg/kg
Experimental: as §4

SNU1076 xenograft = SNU1076 xenograft model in mice; type: in vivo, mouse; conditions: 5 mg/kg
From the text: DTX3L (Deltex 3-like, also called BBAP, B-lymphoma- and BAL-associated protein) heterozygous nonsense mutation was identified in the HNSCC cell line SNU1076. DTX3L is an E3 ubiquitin ligase. Its cellular function in the mammalian Notch pathway is not clear, but its Drosophila homologue Deltex is a positive regulator of Notch signaling in Drosophila. […] Loss of DTX3L may provide an alternative mechanism to inactivate the Notch signaling pathway with subsequent activation of Wnt signaling.

Compound: Cc1cc(-c2ncc(CC(=O)Nc3ccc(-c4cnccn4)cn3)cc2C)ccn1 [COMPOUND A, 2-[5-methyl-6-(2-methylpyridin-4-yl)pyridin-3-yl]-N-[5-(pyrazin-2-yl)pyridin-2-yl]acetamide]
- IC50 (Wnt signaling; Mus musculus, luciferase reporter, 24 hours, read-out: IC50 of Wnt signaling inhibition in Wnt co-culture assay): 0.4 nM
- inhibitory effect after addition of exogenous Wnt3A conditioned medium (Wnt signaling; Wnt co-culture assay): rescued
- abundance of HA-Wnt3A in the supernatant (Wnt3A secretion): potently attenuated
- Wnt dependent phosphorylation of LRP6 (LRP6 phosphorylation): strongly blocked
- inhibitory activities against canonical Wnts in STF reporter assays [1]: comparable inhibitory activities against all tested Wnts
- cytotoxicity in cells (cells): no major cytotoxicity
- cell lines harbouring HRAS mutations that responded (HNSCC cell lines; head and neck cancer cell lines): 4 of 5
- HNSCC cell lines showing pathway inhibition (HNSCC cell lines; responsive = greater than 50% AXIN2 mRNA reduction after 10-100 nM for 48 hours): 31 out of 96
- IC50 (HN30 cells [2]): 0.3 nM
- HN30 colony formation (HN30 cells [3]): strongly attenuated
- T/C (HN30 tumors [4]; 0.1 mg/kg once a day, oral gavage, 14 days): 69%
- T/C (HN30 tumors [4]; 0.3 mg/kg once a day, oral gavage, 14 days): 26%
- T/C (HN30 tumors [4]; 0.5 mg/kg twice a day): −44%
- T/C (HN30 tumors [4]; 1.0 mg/kg once a day, oral gavage, 14 days): −31%
- T/C (HN30 tumors [4]; 3.0 mg/kg once a day, oral gavage, 14 days): −50%
- animal body weight loss (HN30 tumors [4]; 0.1-3.0 mg/kg once a day, 14 days): no significant animal body weight loss
- time of maximum effect on pLRP6 (HN30 tumors [5]; HN30 tumors): 7-10 hours post dose
- downregulation for LEF1 (HN30 tumors [5]; HN30 xenograft): 84%
- downregulation for NKD1 (HN30 tumors [5]; HN30 xenograft): 67%
- time of maximum AXIN2 mRNA inhibition (HN30 tumors [5]; single dose 3 mg/kg): 10 h
- reduction of AXIN2 mRNA expression in tumors (HN30 tumors [5]; single dose 3 mg/kg, between 5 and 10 hours post dose): 60-95%
- pLRP6 levels in the HN30 tumors (HN30 tumors [5]; time dependent, largely back to normal by 24 hours): substantially reduced
- time of peak drug concentration [6]: 1 h
- T/C (SNU1076 xenograft; 14 days of treatment): 25%
- reduction of AXIN2 (SNU1076 xenograft; SNU1076 xenograft): 70%
